Experimental data published in patent publication US20150374649A1, “Treatment of Severe Hypertriglyceridemia” (CymaBay Therapeutics, Inc, priority 2014, published 2015).

Assays:
[1] = system: dyslipidemic overweight patients (mixed dyslipidemia); settings: cited from earlier work
PPARα = target: T1, PPARα (Homo sapiens, UniProt Q07869); test: Specificity for PPARδ compared with PPARα; format: biochemical; settings: PPARδ versus PPARα
T1 sequence (Q07869 1-468): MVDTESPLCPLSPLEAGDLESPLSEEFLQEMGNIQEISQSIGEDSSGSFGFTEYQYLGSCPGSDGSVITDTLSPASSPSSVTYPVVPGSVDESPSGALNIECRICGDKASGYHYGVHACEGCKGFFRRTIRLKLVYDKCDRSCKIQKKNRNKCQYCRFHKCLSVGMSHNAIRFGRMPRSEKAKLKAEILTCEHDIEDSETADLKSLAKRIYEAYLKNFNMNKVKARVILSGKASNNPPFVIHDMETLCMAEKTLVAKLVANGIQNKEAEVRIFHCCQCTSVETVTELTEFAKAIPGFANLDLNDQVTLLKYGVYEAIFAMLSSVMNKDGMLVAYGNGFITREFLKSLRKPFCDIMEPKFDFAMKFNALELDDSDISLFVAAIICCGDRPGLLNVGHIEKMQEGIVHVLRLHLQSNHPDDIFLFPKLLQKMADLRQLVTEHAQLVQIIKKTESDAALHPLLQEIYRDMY

[2] = system: adult subjects with severe hypertriglyceridemia; test: 12-week open label dose-escalation study in severe hypertriglyceridemia; format: in vivo, human
Protocol: The study is a 12-week interventional, open label (single blind), dose-escalation study using adult subjects (for example 30, preferably with at least one-fourth the number having Type I hyperlipoproteinemia and at least one-fourth the number having Type V hyperlipoproteinemia) with severe hypertriglyceridemia (fasting TG levels of at least 1000 mg/dL), on stable therapy (fibrates, niacin, O3FA) or refractory to such therapy. Exclusion criteria include stage 3 or 4 heart failure, uncontrolled diabetes mellitus in the month before screening, use of corticosteroids in the month before screening, estrogen treatments (contraceptive or hormone replacement) unless on a stable dose in the two months before screening, a history of pancreatic disease during the six months before screening, and current apheresis treatments. Subjects are assessed for fasting TGs and other lipids at baseline.

[3] = system: hypertriglyceridemia patients; settings: cited from earlier work

Structure (SMILES) | reduction of TGs over the total population treated ([1]; 50 mg/day and 100 mg/day) [%] | reduction of TGs ([1]; compared to placebo, 50 or 100 mg once daily alone and in combination with ATV 20 mg, 8 weeks, P<0.05) | insulin sensitivity ([1]; homeostatic model assessment-insulin resistance, fasting plasma glucose, insulin lowered) | GGT and ALP ([1]; in vivo) | effect on small dense LDL particles ([1]; in vivo) | liver enzyme levels ([1]; in vivo) | percentage reduction in TGs, tertile with lowest starting TG levels ([1]; starting TG 125-155 mg/dL) | percentage reduction in TGs, tertile with highest starting TG levels ([1]; starting TG 279-324 mg/dL) | specificity compared with PPARα (PPARα) [fold] | fasting TGs versus baseline ([2]; 50, 100, 200 mg/day orally, four weeks each, reduction increasing with dose) | percentage of subjects at risk of acute pancreatitis and associated adverse events ([2]; subjects with SHTG) | decrease of TG levels ([3]; high-dose niacin (at least 1500 mg/day)) | raise of HDL-C levels ([3]; human, in vivo)
CCO[C@H](COc1ccc(C(F)(F)F)cc1)CSc1ccc(OCC(=O)O)c(C)c1 [MBX-8025, (R)-2-(4-((2-ethoxy-3-(4-(trifluoromethyl)phenoxy)propyl)thio)-2-methylphenoxy)acetic acid] | 32 | 26-30% | increases insulin sensitivity | lowers GGT and ALP | selectively depletes small dense LDL particles | reduced liver enzyme levels | near zero | over 40% | > 600 | reduction in fasting TGs from baseline | significantly reduce | – | –
O=C(O)c1cccnc1 [niacin, pyridine-3-carboxylic acid] | – | – | – | – | – | – | – | – | – | – | – | at least 40% | at least 40%
